Assay results from patent US5877210A, “Phosphotyrosine phosphatase inhibitors or phosphotyrosine kinase activators for controlling cellular proliferation” (priority 1995, dated 1999).
Where two headings read alike, the source gives them in different places.

Assays:
[1] = system: murine B cell lymphoma A20 cells; assay: Anti-phosphotyrosine immunoblot; type: cell-based; conditions: 16 hr
[2] = system: MDAMB-453 breast carcinoma cells; assay: Clonogenic assay in methylcellulose; type: cell-based; conditions: dose as high as 100 μM BMLOV
Experimental: (§1) The selective cytotoxicity of BMLOV was examined in clonogenic assays. Cells were grown in methylcellulose media and the number of colonies formed after seven days of treatment with various doses of the drug were determined. The clonogenic assays were performed with six replicates for each treatment as described [F. M. Uckun et al., J. Exp. Med. 163:347-368 (1986); F. M. Uckun & J. A. Ledbetter, Proc. Natl. Acad. Sci. USA 85:8603-8607 (1988)). The data is given plus/minus the standard error of the mean.

ZAP-70 = ZAP-70 tyrosine phosphorylation in T cells; type: cell-based; conditions: 16 h BMLOV, anti-CD3 stimulation
Experimental: In the experiments shown in FIG. 25, human PHA-induced T cell blasts were treated overnight with the indicated concentrations of BMLOV. In Panel A, the baseline level of intracellular free Ca^2+ ([Ca^2+ ]i) was established for 1 min, and then the cells were treated with biotinylated anti-CD3 mAb (G19-4). After 5 min avidin was added (gap in the trace) to cross-link the antibody. In Panel B, assays were performed as in Panel A, but in the presence of 5 mM EGTA. […] In the experiments shown in FIG. 26, cells were treated 16 h with BMLOV and then stimulated with anti-CD3 mAb G19-4 for 5 min. Cells were then washed and resuspended in fresh media at equal concentrations of BMLOV at 37° C. Cells were then harvested and lysed at times following the initiation of CD3 stimulation as indicated. Antibody binding in immunoblots was detected by ECL.

REH = assay: Clonogenic assay in methylcellulose; type: cell-based; conditions: for colonies formed: seven days
Experimental: as §1
For assays of cellular proliferation, cells were grown five days in the presence of the indicated concentrations of BMLOV, pulsed 6 hr with [^3 H]-thymidine (New England Nuclear, Boston, Mass.), and counted in a liquid scintillation counter. Human peripheral blood lymphocytes (PBL) from normal volunteers were isolated from lymphocyte separation medium (Litton Bionetics, Kensington, Md.) by density gradient centrifugation. Monocytes were depleted from PBL by two rounds of plastic absorption for 30 minutes at 37° C. B cells were enriched for by negative selection using complement plus monoclonal antibodies to CD2, CD3, CD4, and CD8 for complement depletion. Clonogenic assays of colony formation in methylcellulose medium were performed as previously described (F. M. Uckun et al. (1992), supra).

CEM = assay: Anti-phosphotyrosine immunoblot; type: cell-based, human; conditions: 16 hr
Ramos B cells [3] = assay: Confocal laser scanning microscopy; type: cell-based, human; conditions: 25 μm BMLOV, 48 h
Experimental: Cells were fixed with 3.7% formaldehyde in PBS and permeabilized by treatment with 0.1% saponin. […] The cells were then washed three times in staining buffer, and stained with fluorescein-labeled goat anti-rabbit antibody (Molecular Probes). After washing three times in staining buffer, cells were stained for DNA with 2 μg/ml propidium iodide. A Leica GmbH confocal laser scanning microscope (CLSM) (Leica Laser Technic, Heidelberg, Germany) equipped with a krypton/argon laser (Omnichrome, Chino, Calif.), 2 double dichroic beam splitters with λs1 /λs2 of 488/647 and 488/568 nm, 1 neutral density beam splitter (Lys Optics, Denmark), the Leica CLSM software accessories, and the Leica true color display graphics package was used to produce the confocal images.
In addition to DNA fragmentation, apoptotic lymphocytes display condensation of chromatin, loss of DNA and fragmentation of nuclei that can be detected by confocal laser scanning microscopy (CLSM) of propidium iodide stained cells (R. Sgonc & G. Wick, Int. Arch. Allergy Immunol. 105:327-332 (1994)). Therefore, CLSM was used to examine Ramos cells stained for DNA with propidium iodide and stained for phosphotyrosine (FIG. 29). In the experiments shown in FIG. 29, Ramos B cells were fixed, permeabilized and stained with propidium iodide for DNA (red) and with anti-phosphotyrosine antibodies (green) as described above. […]

Lyn = assay: Src-family kinase activity from treated Ramos cells; type: cell-based, human; conditions: Ramos cells treated with BMLOV for 15 hours
Experimental: (§2) Treatment of Ramos cells with BMLOV for 15 hours inhibited the activity of the Src kinases Lyn and Fyn from the cells by approximately 50%.

Fyn = assay: as above; type: cell-based, human; conditions: Ramos cells treated with BMLOV for 15 hours
Experimental: as §2

Ramos B cells [4] = assay: Cell cycle analysis by propidium iodide flow cytometry; type: cell-based, human
Experimental: Ramos B cells treated with various concentrations of BMLOV for 16 hours were examined for their DNA content by propidium iodide staining followed by FACScan flow cytometric analysis using the SFIT program.
Cells were fixed, permeabilized and stained for their DNA content with propidium iodide as previously described (D. H. Pluznik et al., "Colony Stimulating Factor (CSF) Controls Proliferation of CSF-Dependent Cells by Acting During the G1 Phase of the Cell Cycle," Proc. Natl. Acad. Sci. USA 81:7451-7455 (1984)). The stained cells were analyzed by flow cytometry on a FACScan (Becton-Dickinson) instrument. The percentage of cells in various stages of the cell cycle was calculated using the CellFIT program.
In FIG. 14, Ramos cells growing in log phase were treated with BMLOV for 48 hr at the indicated concentrations. DNA in the cells was stained with propidium iodide and quantitated by flow cytometry as described previously. The calculated percentage of cells at the stages of the cell cycle is shown. "A" marks apoptotic cells lacking normal amounts of DNA in the 5 μM dose panel.

[5] = system: subcutaneously implanted human ovarian carcinoma, A2780; assay: In vivo antitumor test, A2780
Experimental: Finally, pV(phen) was tested against subcutaneously implanted human ovarian carcinoma, A2780, in Experiment No. 54, using a treatment schedule of once daily for 9 days. Treatments (i.p.) were begun on day 10 post implant when the tumors were small but definite, e.g. […]

Jurkat = type: cell-based, human
Description: The extent to which the T cells were being killed by BMLOV treatment relative to the Ramos B cells was therefore examined. […] The percentage of cells in each quadrant is indicated. The lower right quadrant contains the viable cells.

[6] = Expt. 54, OD 12 mg/kg/inj, qdx9;10, ip

## Cc1occc(=O)c1[O-].Cc1occc(=O)c1[O-].[O]=[V+2] [BMLOV, Bis(maltolato)oxovanadium (IV)]
[1]
  induction of tyrosine phosphorylation: highly responsive
[2]
  inhibition of clonogenic growth: inhibited only moderately
ZAP-70
  tyrosine phosphorylation of ZAP-70 or the associated zeta chain: little effect was observed
REH; 1 μM BMLOV
  percentage of inhibition of clonogenic growth: 64.7%
  colonies formed: 1810 ± 385 colonies per 10^4 cells
REH; 5 μM BMLOV
  percentage of inhibition of clonogenic growth: 98.6%
  colonies formed: 71 ± 8 colonies per 10^4 cells
REH; 10 μM BMLOV
  percentage of inhibition of clonogenic growth: 99.8%
  colonies formed: 8 ± 1 colonies per 10^4 cells
CEM
  induction of tyrosine phosphorylation: only low levels of tyrosine phosphorylation
Ramos B cells [3]
  nuclear morphology by CLSM: extensive loss of DNA, condensation of chromatin
Lyn
  inhibition of kinase activity: approximately 50%
Fyn
  inhibition of kinase activity: approximately 50%
Ramos B cells [4]; 0 to 5 μM BMLOV
  proportion of cells in G2/M: did not change substantially
Ramos B cells [4]; 5 μM BMLOV, control 34%
  proportion of cells in G1: 14%
Ramos B cells [4]; 5 μM BMLOV, control 56%
  proportion of cells in S phase: 77%
Ramos B cells [4]; 16 hours, 0 to 5 μM BMLOV
  effect on cell cycle distribution, in words: preferentially deplete the proportion of cells in G1 while increasing the proportion in S phase

## [Na+].[O]=[V-]12([O][O]1)[O][O]2.c1cnc2c(c1)ccc1cccnc12 [pV(phen), sodium (1,10-phenanthroline) oxodiperoxovanadium (V)]
[5]; [6]
  LCK (log cell kill): 0.4
  T-C (delay in primary tumor growth): 4.0 days
[5]; once daily for 9 days, i.p., cumulative dose of 45 mg/kg
  MTD: 5 mg/kg per injection
Jurkat; Jurkat, 10 μM pV(phen), three days
  cells killed: all the cells
Jurkat; human, jurkat cells, 48 h, 10 µM
  cells killed: 98%
